These results are taken from ChEMBL document CHEMBL5465560, “Selectivity Literature for EUbOPEN Chemogenomic Library” (2024).

Structures are written as SMILES.

Assay [1] deals with BMP-2-inducible protein kinase (Homo sapiens) (UniProt Q9NSY1). Description: Selectivity interaction (Ambit KINOMEscan and KiNATiv profiling in Jurkat cells) EUB0000090b BMP2K. The format is cell-based. The conditions noted are these: at 1 µM.
The target in assay [2] is T1, Mitogen-activated protein kinase kinase kinase 6 (Homo sapiens) (UniProt O95382).
T1 sequence (whole entry): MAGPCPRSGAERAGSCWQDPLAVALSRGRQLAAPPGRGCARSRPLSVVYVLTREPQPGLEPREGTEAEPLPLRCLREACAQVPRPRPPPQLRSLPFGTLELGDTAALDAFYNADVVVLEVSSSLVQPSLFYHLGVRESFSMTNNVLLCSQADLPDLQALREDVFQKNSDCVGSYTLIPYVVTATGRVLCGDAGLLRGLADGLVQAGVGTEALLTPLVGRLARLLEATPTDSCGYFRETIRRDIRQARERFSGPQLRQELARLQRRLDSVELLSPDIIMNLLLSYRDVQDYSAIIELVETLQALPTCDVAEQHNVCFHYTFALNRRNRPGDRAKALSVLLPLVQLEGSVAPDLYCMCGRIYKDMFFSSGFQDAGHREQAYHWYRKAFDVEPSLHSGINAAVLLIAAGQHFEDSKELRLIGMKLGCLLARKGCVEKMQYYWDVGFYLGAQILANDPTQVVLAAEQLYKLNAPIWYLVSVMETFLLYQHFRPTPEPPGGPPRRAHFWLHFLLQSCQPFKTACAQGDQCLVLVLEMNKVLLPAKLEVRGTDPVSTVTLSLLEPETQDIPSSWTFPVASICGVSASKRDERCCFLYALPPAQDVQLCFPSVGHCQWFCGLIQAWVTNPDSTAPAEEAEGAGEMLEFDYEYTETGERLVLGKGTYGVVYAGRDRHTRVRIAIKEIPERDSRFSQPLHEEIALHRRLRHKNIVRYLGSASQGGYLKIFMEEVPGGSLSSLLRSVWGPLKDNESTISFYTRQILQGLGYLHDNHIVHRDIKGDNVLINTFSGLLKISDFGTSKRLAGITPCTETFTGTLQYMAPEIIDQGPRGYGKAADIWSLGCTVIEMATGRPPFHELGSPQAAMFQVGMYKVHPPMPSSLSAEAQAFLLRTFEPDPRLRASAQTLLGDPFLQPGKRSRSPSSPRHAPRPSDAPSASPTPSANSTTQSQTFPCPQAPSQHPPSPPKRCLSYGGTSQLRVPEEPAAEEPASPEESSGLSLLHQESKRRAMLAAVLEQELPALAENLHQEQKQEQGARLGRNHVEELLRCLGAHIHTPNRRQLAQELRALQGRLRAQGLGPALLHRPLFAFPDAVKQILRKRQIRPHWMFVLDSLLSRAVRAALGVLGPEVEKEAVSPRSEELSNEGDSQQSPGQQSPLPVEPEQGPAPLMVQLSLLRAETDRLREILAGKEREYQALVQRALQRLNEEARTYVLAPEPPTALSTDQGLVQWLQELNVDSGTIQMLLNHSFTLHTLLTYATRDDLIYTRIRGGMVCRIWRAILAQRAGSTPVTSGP
In words: Selectivity interaction (KinomeScan (DiscoverX)) EUB0000655a MAP3K6. The note with it: at 10 µM.

The target of assay [3] is T2, Muscarinic acetylcholine receptor M2 (Homo sapiens) (UniProt P08172).
T2 sequence (whole entry): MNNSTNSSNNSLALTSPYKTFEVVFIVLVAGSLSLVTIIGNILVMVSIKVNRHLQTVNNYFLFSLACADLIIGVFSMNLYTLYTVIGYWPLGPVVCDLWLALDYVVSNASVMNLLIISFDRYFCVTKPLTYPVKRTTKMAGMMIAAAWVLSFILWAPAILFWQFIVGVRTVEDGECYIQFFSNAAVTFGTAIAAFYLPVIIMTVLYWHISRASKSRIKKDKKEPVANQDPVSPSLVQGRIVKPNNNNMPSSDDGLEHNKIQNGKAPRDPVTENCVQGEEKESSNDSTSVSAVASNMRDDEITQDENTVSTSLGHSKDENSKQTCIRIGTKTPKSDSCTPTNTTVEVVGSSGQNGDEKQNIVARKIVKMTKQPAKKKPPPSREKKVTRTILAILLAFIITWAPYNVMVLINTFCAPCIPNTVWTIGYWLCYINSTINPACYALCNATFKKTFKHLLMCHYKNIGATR
Description: Selectivity interaction (GPCR panel (PDSP screen)) EUB0001079a CHRM2. The note with it: at 10 µM.

In assay [4] the target is Tyrosine-protein kinase ABL2 (Homo sapiens, UniProt P42684). Description: Selectivity interaction (ActivX KiNativ screen (ex vivo kinase selectivity in human PBMCs)) EUB0001619a ABL2. The format is cell-based. The note with it: PBMC, at 1 µM.
Sequence of Tyrosine-protein kinase ABL2 (P42684 whole entry): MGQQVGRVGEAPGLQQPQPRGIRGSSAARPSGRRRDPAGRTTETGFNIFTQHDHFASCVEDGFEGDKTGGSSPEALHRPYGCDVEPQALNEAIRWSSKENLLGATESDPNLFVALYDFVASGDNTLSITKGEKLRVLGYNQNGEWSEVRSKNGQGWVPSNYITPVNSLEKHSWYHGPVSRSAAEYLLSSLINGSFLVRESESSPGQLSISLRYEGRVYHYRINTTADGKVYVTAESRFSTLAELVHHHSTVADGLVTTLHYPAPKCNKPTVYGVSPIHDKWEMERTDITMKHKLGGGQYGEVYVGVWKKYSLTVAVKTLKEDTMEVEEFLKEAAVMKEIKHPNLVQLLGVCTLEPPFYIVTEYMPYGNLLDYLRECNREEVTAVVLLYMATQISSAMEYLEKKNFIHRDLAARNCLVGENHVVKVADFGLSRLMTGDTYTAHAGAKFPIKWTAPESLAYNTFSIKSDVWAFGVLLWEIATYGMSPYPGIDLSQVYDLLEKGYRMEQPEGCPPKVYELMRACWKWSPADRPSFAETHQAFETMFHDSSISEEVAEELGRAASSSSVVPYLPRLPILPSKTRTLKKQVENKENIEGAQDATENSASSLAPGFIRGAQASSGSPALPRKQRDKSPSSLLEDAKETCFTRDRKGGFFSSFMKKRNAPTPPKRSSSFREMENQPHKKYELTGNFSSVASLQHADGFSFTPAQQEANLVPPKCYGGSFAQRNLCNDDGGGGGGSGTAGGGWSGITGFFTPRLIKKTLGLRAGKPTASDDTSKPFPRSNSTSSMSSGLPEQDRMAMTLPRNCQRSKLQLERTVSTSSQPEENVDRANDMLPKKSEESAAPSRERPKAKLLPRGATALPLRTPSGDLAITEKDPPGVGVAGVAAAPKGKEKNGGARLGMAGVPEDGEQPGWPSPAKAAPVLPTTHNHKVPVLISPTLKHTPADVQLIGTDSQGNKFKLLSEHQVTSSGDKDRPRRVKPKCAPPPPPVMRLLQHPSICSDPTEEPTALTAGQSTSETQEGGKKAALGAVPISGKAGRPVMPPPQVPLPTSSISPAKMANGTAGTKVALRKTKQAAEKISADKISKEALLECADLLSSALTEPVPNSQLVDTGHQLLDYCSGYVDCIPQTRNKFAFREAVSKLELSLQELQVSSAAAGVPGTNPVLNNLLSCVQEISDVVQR
Assay [5] concerns the target MAP kinase-activated protein kinase 2 (Homo sapiens, UniProt P49137). In words: Selectivity interaction (Kinase screening (Nanosyn)) EUB0000604a MAPKAPK2.
The target of assay [6] is Proto-oncogene tyrosine-protein kinase Src (Homo sapiens, UniProt P12931). In words: Selectivity interaction (Millipore kinase profiler) EUB0000124b SRC. The note with it: at 10 µM.
Sequence of Proto-oncogene tyrosine-protein kinase Src (P12931 2-536 limits assumed): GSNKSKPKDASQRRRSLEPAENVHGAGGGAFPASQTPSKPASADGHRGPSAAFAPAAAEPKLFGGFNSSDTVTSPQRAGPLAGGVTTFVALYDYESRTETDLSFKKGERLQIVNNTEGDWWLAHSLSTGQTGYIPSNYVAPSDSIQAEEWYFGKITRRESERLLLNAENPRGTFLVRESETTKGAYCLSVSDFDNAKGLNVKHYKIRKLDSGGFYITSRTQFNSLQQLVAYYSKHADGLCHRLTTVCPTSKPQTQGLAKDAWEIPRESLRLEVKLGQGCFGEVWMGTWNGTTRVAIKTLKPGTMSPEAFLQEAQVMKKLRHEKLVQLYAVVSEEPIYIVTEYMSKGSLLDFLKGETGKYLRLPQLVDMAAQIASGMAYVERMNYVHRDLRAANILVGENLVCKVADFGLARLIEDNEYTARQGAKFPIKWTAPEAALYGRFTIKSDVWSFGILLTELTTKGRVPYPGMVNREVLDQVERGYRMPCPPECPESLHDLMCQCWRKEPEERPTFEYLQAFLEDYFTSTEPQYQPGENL
Assay [7] concerns the target T3, Serine/threonine-protein kinase haspin (Homo sapiens) (UniProt Q8TF76).
T3 sequence (whole entry): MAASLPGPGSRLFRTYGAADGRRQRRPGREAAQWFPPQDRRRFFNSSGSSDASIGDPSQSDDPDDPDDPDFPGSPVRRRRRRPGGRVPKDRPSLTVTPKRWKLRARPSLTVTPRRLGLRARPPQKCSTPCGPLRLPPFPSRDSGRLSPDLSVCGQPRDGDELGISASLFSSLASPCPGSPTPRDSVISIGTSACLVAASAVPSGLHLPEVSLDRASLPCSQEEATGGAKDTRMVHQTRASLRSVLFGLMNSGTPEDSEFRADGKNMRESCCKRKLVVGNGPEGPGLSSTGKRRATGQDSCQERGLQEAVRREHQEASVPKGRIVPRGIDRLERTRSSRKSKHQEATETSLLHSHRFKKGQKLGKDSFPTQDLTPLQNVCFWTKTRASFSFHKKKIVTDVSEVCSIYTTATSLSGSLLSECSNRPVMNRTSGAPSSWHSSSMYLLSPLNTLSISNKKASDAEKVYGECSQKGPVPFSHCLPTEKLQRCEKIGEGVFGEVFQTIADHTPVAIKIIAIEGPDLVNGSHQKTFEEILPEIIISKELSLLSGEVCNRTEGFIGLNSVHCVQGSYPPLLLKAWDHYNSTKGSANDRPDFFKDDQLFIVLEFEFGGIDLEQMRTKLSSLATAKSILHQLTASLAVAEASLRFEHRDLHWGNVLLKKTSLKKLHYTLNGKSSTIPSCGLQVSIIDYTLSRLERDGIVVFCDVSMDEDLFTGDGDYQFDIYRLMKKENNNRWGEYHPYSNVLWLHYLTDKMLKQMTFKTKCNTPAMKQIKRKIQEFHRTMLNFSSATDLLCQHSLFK
Description: Selectivity interaction (KinomeScan (DiscoverX)) EUB0001049a GSG2. The conditions noted are these: at 1 µM.

The next assay addresses SRSF protein kinase 1 (Homo sapiens, UniProt Q96SB4). Description: Selectivity interaction (KinomeScan (DiscoverX)) EUB0000595a SRPK1. The note with it: at 10 µM.

Sequence of MAP kinase-activated protein kinase 2 (P49137 whole entry, looked up): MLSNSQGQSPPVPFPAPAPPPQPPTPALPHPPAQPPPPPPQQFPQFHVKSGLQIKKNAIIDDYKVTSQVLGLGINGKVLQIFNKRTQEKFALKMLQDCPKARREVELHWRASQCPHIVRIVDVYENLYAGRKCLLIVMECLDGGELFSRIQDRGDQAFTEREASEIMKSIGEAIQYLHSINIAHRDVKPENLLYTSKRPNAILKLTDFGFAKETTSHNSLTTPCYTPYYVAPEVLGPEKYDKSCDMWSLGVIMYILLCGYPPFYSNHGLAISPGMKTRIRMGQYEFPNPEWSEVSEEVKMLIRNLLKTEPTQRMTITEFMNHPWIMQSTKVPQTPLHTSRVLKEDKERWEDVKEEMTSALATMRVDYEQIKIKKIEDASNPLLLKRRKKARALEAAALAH
Sequence of SRSF protein kinase 1 (Q96SB4 whole entry): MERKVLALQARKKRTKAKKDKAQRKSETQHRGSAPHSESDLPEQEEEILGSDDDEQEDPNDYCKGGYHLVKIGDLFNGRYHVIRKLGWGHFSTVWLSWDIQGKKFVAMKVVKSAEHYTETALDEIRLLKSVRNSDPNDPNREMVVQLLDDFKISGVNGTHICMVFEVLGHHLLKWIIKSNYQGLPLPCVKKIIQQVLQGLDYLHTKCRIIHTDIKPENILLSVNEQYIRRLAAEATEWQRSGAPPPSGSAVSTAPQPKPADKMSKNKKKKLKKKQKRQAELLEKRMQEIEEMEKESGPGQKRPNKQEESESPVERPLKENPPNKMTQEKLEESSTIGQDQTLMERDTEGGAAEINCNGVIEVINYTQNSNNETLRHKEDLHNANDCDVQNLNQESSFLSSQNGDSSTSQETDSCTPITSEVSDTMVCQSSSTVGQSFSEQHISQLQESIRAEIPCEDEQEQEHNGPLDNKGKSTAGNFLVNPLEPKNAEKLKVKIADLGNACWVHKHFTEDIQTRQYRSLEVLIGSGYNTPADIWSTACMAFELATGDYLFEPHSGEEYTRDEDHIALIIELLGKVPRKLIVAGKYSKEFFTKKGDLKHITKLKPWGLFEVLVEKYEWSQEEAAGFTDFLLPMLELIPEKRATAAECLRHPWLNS
Sequence of BMP-2-inducible protein kinase (Homo sapiens) (Q9NSY1 whole entry, looked up): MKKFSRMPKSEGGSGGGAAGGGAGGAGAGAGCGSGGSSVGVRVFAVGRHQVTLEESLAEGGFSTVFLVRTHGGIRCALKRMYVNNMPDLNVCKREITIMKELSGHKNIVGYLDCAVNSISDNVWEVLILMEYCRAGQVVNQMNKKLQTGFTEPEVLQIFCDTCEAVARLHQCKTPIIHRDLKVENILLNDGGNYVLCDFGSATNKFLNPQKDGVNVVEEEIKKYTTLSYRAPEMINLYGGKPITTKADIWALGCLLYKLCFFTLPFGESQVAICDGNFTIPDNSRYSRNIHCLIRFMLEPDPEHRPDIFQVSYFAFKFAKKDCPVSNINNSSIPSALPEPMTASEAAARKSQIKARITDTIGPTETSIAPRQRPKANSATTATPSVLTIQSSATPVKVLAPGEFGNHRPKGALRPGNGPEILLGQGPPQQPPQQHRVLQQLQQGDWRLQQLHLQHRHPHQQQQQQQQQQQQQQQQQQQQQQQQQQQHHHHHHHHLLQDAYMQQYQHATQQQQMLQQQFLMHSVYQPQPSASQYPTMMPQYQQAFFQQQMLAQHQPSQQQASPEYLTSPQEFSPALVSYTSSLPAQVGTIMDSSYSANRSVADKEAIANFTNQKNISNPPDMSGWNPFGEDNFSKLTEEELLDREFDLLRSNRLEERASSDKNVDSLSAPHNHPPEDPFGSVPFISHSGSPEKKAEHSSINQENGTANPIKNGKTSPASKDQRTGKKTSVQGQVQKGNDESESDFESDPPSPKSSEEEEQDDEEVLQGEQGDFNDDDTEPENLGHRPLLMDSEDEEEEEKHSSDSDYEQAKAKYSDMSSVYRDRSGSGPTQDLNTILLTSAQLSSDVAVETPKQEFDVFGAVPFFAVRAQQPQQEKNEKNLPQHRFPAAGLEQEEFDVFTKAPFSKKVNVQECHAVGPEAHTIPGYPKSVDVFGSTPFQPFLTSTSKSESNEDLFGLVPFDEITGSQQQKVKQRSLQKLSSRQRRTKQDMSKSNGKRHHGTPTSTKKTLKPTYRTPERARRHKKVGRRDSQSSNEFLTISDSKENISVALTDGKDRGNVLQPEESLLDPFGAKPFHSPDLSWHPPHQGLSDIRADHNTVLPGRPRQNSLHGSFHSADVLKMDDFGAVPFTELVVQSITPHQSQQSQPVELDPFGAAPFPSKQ

`CN(C)C/C=C/C(=O)Nc1ccc(C(=O)N2CCCC(Nc3ncc(Cl)c(-c4c[nH]c5ccccc45)n3)C2)cc1` (stereo not drawn) displayed a % of control in assay [1] of 100%. Regarding `CN(C)CCOc1ccc(-c2nc(-c3ccncc3)c(-c3ccc4c(c3)CC/C4=N\O)[nH]2)cc1`, in assay [2], the % of control amounted to 100%. For the compound `Nc1cnc(N2CCc3cc(S(=O)(=O)Nc4c(F)cc(Cl)cc4F)cc(N4CCCC4=O)c32)nc1` [TP-020n], the % of inhibition in assay [3] came to 3.7%. As to `N#Cc1cccc(-c2c[nH]c3ncnc(N4CCOCC4)c23)c1`, the % of inhibition in assay [4] is -53%.

On to `Cc1cnc(Nc2ccc(F)cc2Cl)nc1-c1c[nH]c(C(=O)N[C@H](CO)c2cccc(Cl)c2)c1`, for which the % of inhibition in assay [5] is 0%. For the compound `CC(=O)Nc1cccc(-n2c(=O)n(C3CC3)c(=O)c3c(Nc4ccc(I)cc4F)n(C)c(=O)c(C)c32)c1`, the % of control in assay [6] came to 82%. Regarding `COc1cc(Nc2nc(C)cc(-c3cnn4nc(OC)ccc34)n2)cc(C(F)(F)F)c1`, the % of control in assay [7] was determined as 100%. `COCC(=O)NC/C=C/c1ccc2ncnc(Nc3ccc(Oc4ccc(C)nc4)c(C)c3)c2c1` [CP-724714] came in with a % of control at SRSF protein kinase 1 of 100%.
